Measured values from patent US4087528A, “2,4-Diamino-5-benzylpyrimidines” (Abbott Laboratories, priority 1976, dated 1978).
Converted amounts (≈) assume the structure as drawn.

How the values were obtained:
E. Coli 114 Sensitive = assay: Two-fold tube dilution test vs. trimethoprim-sensitive E. coli (Table 4); format: cell-based; details: Escherichia coli, minimal medium, 37° C., 18 hours, read-out: Minimum Inhibitory Concentration
Method: (§1) Compounds V - VIII were tested and compared with trimethoprim, as control, against two external strains, (Escherichia coli) a sensitive No. 114 and a No. 114 carrying a resistant (R) factor which mediates the synthesis of an altered dihydrofolate reductase; S. G. R. Amyes and J. T. Smith, Biochem. and Biophys., Res. Comm., 58, 412 (1974).
(§2) The method used was a two-fold tube dilution test in 5 ml. amounts of minimal medium. The inoculum was 0.1 ml. of a 1:1T dilution of a 24 hour broth culture. The test was incubated at 37° C. for 18 hours.

E. Coli (Resistant) = assay: microbe, parasite or virus in culture; format: cell-based, Escherichia coli; details: for MIC: Escherichia coli, 18 h, read-out: Minimum Inhibitory Concentration
Method: as §1, §2

E. Coli (Juhl) = assay: Acute Mouse Protection Test (Table 6); format: in vivo, Female, Swiss albino mice; details: approximate, combination with sulfamethoxazole, medicated 1 and 5 hours post-infection, 7 days
Method: (§3) The test bacteria were transferred to Brain Heart Infusion Broth and incubated at 37° C. for 18 hours. Log dilutions of the organism were made in BHI broth and mixed with 3% hog gastric mucin.
(§4) Female, Swiss albino mice, 18 - 20 grams, were injected intraperitoneally with 0.75 ml. of inoculum.
(§5) The optimum dilution was one in which each mouse received 10 - 10 LD50 's of the infecting organism.
(§6) The test compound was diluted in such a way that there were 5 drug levels (each level is half as concentrated as the one above) in each test. Ten infected mice were treated with each level of drug. The mice were medicated 1 and 5 hours post-infection.

P. Mirabilis = assay: Acute Mouse Protection Test (Table 6); format: in vivo, Female, Swiss albino mice; details: approximate, combination with sulfamethoxazole, medicated 1 and 5 hours post-infection, 7 days
Method: as §3, §4, §5, §6

[1] = system: Streptococcus pyogenes C203; assay: Tube dilution test, Mueller Hinton Medium (Table 3); format: cell-based; details: 18 h, read-out: Minimum Inhibitory Concentration
Method: (§7) Escherichia coli Juhl and Escherichia coli 3100. The method used was a two-fold tube dilution test in 5 ml. amounts of minimal medium. The inoculum was 0.1 ml. of a 1:1T dilution of a 24 hour broth culture. The test was incubated at 37° C. for 18 hours. A similar test was made on other strains with the compounds (V, VI, VII and VIII) in 5 ml. amounts of Mueller Hinton Medium.

[2] = system: Staphylococcus aureus 209P; assay: as above; format: cell-based; details: 18 h, read-out: Minimum Inhibitory Concentration
Method: as §7

[3] = system: Staphylococcus aureus Smith; assay: as above; format: cell-based; details: 18 h, read-out: Minimum Inhibitory Concentration
Method: as §7

E. Coli 3100 = assay: In vitro potentiation of sulfonamides, two-fold tube dilution test in BBL Nutrient broth (Table 5); format: cell-based, Escherichia Coli; details: MIC of sulfonamide alone vs in combination
Method: The potentiation properties of the compounds, i.e., compounds V - VIII in various combinations with sulfa compounds, i.e., sulfonamides (sulfamethoxazole, sulfadiazine, sulfamethazine and sulfamerazine) were tested. The method was a two-fold tube dilution test using BBL Nutrient broth in 5 ml. amounts. The inoculum was 0.1 ml. of a 10^-3 dilution 24 hour broth culture of Escherichia Coli 3100. The test was incubated at 37° C. for 18 hours. | *The potentiation effect shown is determined by measuring the minimum | inhibitory concentration (MIC) of the sulfonamide alone and in combinatio | with the compound at the indicated ratios.

Escherichia coli Juhl = assay: Two-fold tube dilution test, minimal medium (Table 2); format: cell-based; details: 37° C., 18 hours, read-out: Minimum Inhibitory Concentration
Method: (§8) The four compounds, i.e., compounds V, VI, VII, VIII, were tested against a series of strains including:
(§9) Escherichia coli Juhl and Escherichia coli 3100. The method used was a two-fold tube dilution test in 5 ml. amounts of minimal medium. The inoculum was 0.1 ml. of a 1:1T dilution of a 24 hour broth culture. The test was incubated at 37° C. for 18 hours.

[4] = system: Klebsiella pneumoniae 8045; assay: as above; format: cell-based; details: 37° C., 18 hours, read-out: Minimum Inhibitory Concentration
Method: as §8, §9

[5] = system: Salmonella typhimurium Ed 9; assay: as above; format: cell-based; details: Salmonella enterica, 37° C., 18 hours, read-out: Minimum Inhibitory Concentration
Method: as §8, §9

[6] = system: Enterobacter aerogenes 13048; assay: as above; format: cell-based; details: Klebsiella aerogenes, 37° C., 18 hours, read-out: Minimum Inhibitory Concentration
Method: as §8, §9

[7] = system: Proteus mirabilis Finland #9; assay: as above; format: cell-based; details: 37° C., 18 hours, read-out: Minimum Inhibitory Concentration
Method: as §8, §9

Escherichia coli 3100 = assay: as above; format: cell-based; details: 37° C., 18 hours, read-out: Minimum Inhibitory Concentration
Method: as §8, §9

E. Coli (48) = assay: Acute Mouse Protection Test (Table 6); format: in vivo, Female, Swiss albino mice; details: approximate, combination with sulfamethoxazole, medicated 1 and 5 hours post-infection, 7 days
Method: as §3, §4, §5, §6

P. Vulgaris = assay: Acute Mouse Protection Test (Table 6); format: in vivo, Female, Swiss albino mice; details: approximate, combination with sulfamethoxazole, medicated 1 and 5 hours post-infection, 7 days
Method: as §3, §4, §5, §6

[8] = Sulfadiazine, Compound/Sulfa Ratio 1:1
[9] = Sulfadiazine, Compound/Sulfa Ratio 1:5

SMILES	MIC (E. Coli 114 Sensitive) [µg/mL]	MIC (E. Coli (Resistant)) [µg/mL]	CD50, Cmpd. part of the Sulfa/Cmpd. combination (E. Coli (Juhl)) [Mg./Kg.]	CD50, Cmpd. part of the Sulfa/Cmpd. combination (P. Mirabilis) [Mg./Kg.]	MIC [1] [µg/mL]	MIC [2] [µg/mL]	MIC [3] [µg/mL]	Potentiation (E. Coli 3100; [8]) [X]	Potentiation (E. Coli 3100; [9]) [X]	MIC (Escherichia coli Juhl) [µg/mL]	MIC [4] [µg/mL]	MIC [5] [µg/mL]	MIC [6] [µg/mL]	MIC [7] [µg/mL]	MIC (Escherichia coli 3100) [µg/mL]	CD50, Cmpd. part of the Sulfa/Cmpd. combination (E. Coli (48)) [Mg./Kg.]	CD50, Cmpd. part of the Sulfa/Cmpd. combination (P. Vulgaris) [Mg./Kg.]	also measured
COc1cc(Cc2cnc(N)nc2N)cc(OC)c1OC [Trimethoprim, reference compound]	0.2 (≈ 0.689 µM)	3000 (≈ 10300 µM)																increase in resistance caused by the resistant (R) factor (E. Coli (Resistant); R factor in E. Coli 114 versus sensitive): several thousand-fold
Nc1ncc(Cc2cc(Cl)c(N)c(Cl)c2)c(N)n1 [V, 2,4-Diamino-5-(4-amino-3,5-dichlorobenzyl)pyrimidine]	1.56 (≈ 5.49 µM)	400 (≈ 1410 µM)	45	30	6.2 (≈ 21.8 µM)	6.2 (≈ 21.8 µM)	25 (≈ 88 µM)	31.0	3.1	0.78 (≈ 2.75 µM)	1.56 (≈ 5.49 µM)	3.1 (≈ 10.9 µM)	1.56 (≈ 5.49 µM)	25 (≈ 88 µM)	0.39 (≈ 1.37 µM)			
CNc1c(Cl)cc(Cc2cnc(N)nc2N)cc1Cl [VI, 2,4-Diamino-5-(3,5-dichloro-4-methylaminobenzyl)pyrimidine]	1.56 (≈ 5.23 µM)	> 400	30	60	6.2 (≈ 20.8 µM)	3.1 (≈ 10.4 µM)	6.2 (≈ 20.8 µM)	15.9	3.1	6.2 (≈ 20.8 µM)	6.2 (≈ 20.8 µM)	3.1 (≈ 10.4 µM)	3.1 (≈ 10.4 µM)	12.5 (≈ 41.9 µM)	3.1 (≈ 10.4 µM)	3	2	
CCNc1c(Cl)cc(Cc2cnc(N)nc2N)cc1Cl [VII, 2,4-Diamino-5-(3,5-dichloro-4-ethylaminobenzyl)pyrimidine]	3.1 (≈ 9.93 µM)	200 (≈ 641 µM)	35	30	12.5 (≈ 40 µM)	3.1 (≈ 9.93 µM)	6.2 (≈ 19.9 µM)	8.0	6.2	3.1 (≈ 9.93 µM)	12.5 (≈ 40 µM)	12.5 (≈ 40 µM)	25 (≈ 80.1 µM)	50 (≈ 160 µM)	6.2 (≈ 19.9 µM)	2	2	Potentiation (E. Coli 3100; Sulfamerazine, Compound/Sulfa Ratio 1:1): 8.0 X; Potentiation (E. Coli 3100; Sulfamerazine, Compound/Sulfa Ratio 1:5): 3.2 X; Potentiation (E. Coli 3100; Sulfamethazine, Compound/Sulfa Ratio 1:1): 4.0 X; Potentiation (E. Coli 3100; Sulfamethazine, Compound/Sulfa Ratio 1:5): 3.2 X; Potentiation (E. Coli 3100; Sulfamethoxazole, Compound/Sulfa Ratio 1:1): 4.0 X; Potentiation (E. Coli 3100; Sulfamethoxazole, Compound/Sulfa Ratio 1:5): 3.1 X
CN(C)c1c(Cl)cc(Cc2cnc(N)nc2N)cc1Cl [VIII, 2,4-Diamino-5-(3,5-dichloro-4-dimethylaminobenzyl)pyrimidine]	6.2 (≈ 19.9 µM)	100 (≈ 320 µM)	45	80	3.1 (≈ 9.93 µM)	1.56 (≈ 5 µM)	3.1 (≈ 9.93 µM)	8.0	1.6	6.2 (≈ 19.9 µM)	6.2 (≈ 19.9 µM)	6.2 (≈ 19.9 µM)	3.1 (≈ 9.93 µM)	25 (≈ 80.1 µM)	6.2 (≈ 19.9 µM)	3	2	
